Structures are written as SMILES. Values after ≈ are worked out from the molar mass of the structure shown.

Data set [1] is described as follows: Solubility of DEX in vegetable oils with cosolvents (shaker, HPLC). It is filed as physicochemical. Particulars: oil or lipid, thermodynamic from solid, 24 hours incubation. As to the method:
After centrifugation, 200 μL of supernatant was diluted with 600 μL of tetrahydrofuran and 800 μL of acetonitrile in vials for the HPLC analysis. All samples were prepared in triplicates. Castor oil combined with 20 % (v/v) of isopropanol and castor oil with 20 % (v/v) of Capryol® 90 were chosen as the best formulations for the following experiments.
Samples from the solubility and partitioning studies were analysed on HPLC system Agilent 1100/1200 series connected to diode array detector adjusted to 241 nm. Kinetex C18 column (4.6 x 50 mm, particles 2.6 μm and pore size 100 Å) by Phenomenex (USA), heated to 40 °C, was used. The chromatograms were obtained with a gradient elution, where acetonitrile and buffer pH 2.0 were components of the mobile phase. Injector temperature was adjusted at 35 °C, the flow rate at 1.8 ml/min and sample injection volume at 10 μL. […] The two working standard solutions were obtained by further diluting the stock solution. […] The second standard solution was prepared by diluting 1 mL of stock solution in 100 mL acetonitrile. It was used for DEX assay in solutions composed of four other oils.

For data set [2] the following is noted: phosphate buffer pH 7.4 with 10 % (v/v) ethanol; cited from earlier work.
The conditions of data set [3]: cited from earlier work.

The term solubility denotes the concentration that dissolves in the medium under given conditions. A higher solubility goes with much dissolved substance. Consider `C[C@@H]1C[C@H]2[C@@H]3CCC4=CC(=O)C=C[C@]4(C)[C@@]3(F)[C@@H](O)C[C@]2(C)[C@@]1(O)C(=O)CO` [DEX, Dexamethasone], for which the solubility at 24 h in data set [1] (castor oil with 20 % (v/v) Capryol 90, 37 °C) was about 1200 µg/mL (≈ 3.06 mM); in data set [1] (castor oil with 20 % (v/v) isopropanol, 37 °C), about 2300 µg/mL (≈ 5.86 mM). The “solubility of DEX” value in data set [2] is 170 µg/mL. In data set [3], the solubility in ethanol entry is “sparingly soluble”. The solubility in water result in data set [3] is on record as “practically insoluble”.

The values are drawn from paper PMC9793461 (ADMET & DMPK, 2022).
